The record followed here is US7074801B1, “Nitrogen-containing condensed cyclic compound having a pyrazolyl group as a substituent group and pharmaceutical composition thereof” (Eisai Co., Ltd., priority 2001, dated 2006).

Each structure is given as a SMILES string. Where a name gives a salt, the structure may show the parent alone. Some results are limits rather than exact numbers.

The experiment has as its system STAT6. Put plainly: Inhibitory test on STAT6 activation: IL-4-induced alkali phosphatase STAT6 reporter in 293 cells stably expressing the STAT6 gene and STAT6 reporter gene. It is filed as cell-based. To be noted: HEK293; Table 2; 1 ng/ml human recombinant IL-4, 16 hours, 293 cells with STAT6 reporter; read-out: Inhibitory activity IC50 (concentration at which the alkali phosphatase activity induced by IL-4 was inhibited by 50%). The method, boiled down:
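HEK293 clone stably carrying STAT6 and a STAT6-element-driven alkaline phosphatase reporter, 5000 cells/well. Compound (DMSO ≤0.1%) plus 1 ng/ml human IL-4 for 16 hours. Supernatant heat-treated 65° C. 10 minutes, then alkaline phosphatase measured fluorometrically in carbonate buffer.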

For the molecule `Fc1ccc(-c2n[nH]cc2-c2ccc3ncnc(-c4nnc(C5CC5)o4)c3c2)c(F)c1` [Example 907, 4-(5-Cyclopropyl[1,3,4]oxadiazol-2-yl)-6-[3-(2,4-difluorophenyl)-1H-pyrazol-4-yl] quinazoline], the IC50 is 10 to 100 nM.
In the case of `Fc1ccc(-c2n[nH]cc2-c2ccc3ncnc(-c4nnc(C5CC5)s4)c3c2)c(F)c1` [Example 908, 4-(5-Cyclopropyl[1,3,4]thiadiazol-2-yl)-6-[3-(2,4-difluorophenyl)-1H-pyrazol-4-yl] quinazoline], the IC50 was below 10 nM.
For `COc1nnc(-c2ncnc3ccc(-c4c[nH]nc4-c4c(F)cccc4F)cc23)o1` [Example 909, 6-[3-(2,6-Difluorophenyl)-1H-pyrazol-4-yl]-4-(5-methoxy|[1,3,4]oxadiazol-2-yl) quinazoline], the IC50 lay in the range of 10 to 100 nM.
For the molecule `Cn1cc(-c2ncnc3ccc(-c4c[nH]nc4-c4c(F)cccc4F)cc23)cn1` [Example 910, 6-[3-(2,6-Difluorophenyl)-1H-pyrazol-4-yl]-4-(1-methyl-1H-pyrazol-4-yl) quinazoline], the IC50 was below 10 nM.
`Cn1cnc(-c2ncnc3ccc(-c4c[nH]nc4-c4c(F)cccc4F)cc23)c1` [Example 911, 6-[3-(2,6-Difluorophenyl)-1H-pyrazol-4-yl]-4-(1-methyl-1H-imidazol-4-yl) quinazoline]: the IC50 was below 10 nM.
As for `Cc1cnn(-c2ncnc3ccc(-c4c[nH]nc4-c4c(F)cccc4F)cc23)c1` [Example 913, 6-[3-(2,6-Difluorophenyl)-1H-pyrazol-4-yl]-4-(4-methylpyrazol-1-yl) quinazoline], the IC50 is below 10 nM.
`Cc1cn(-c2ncnc3ccc(-c4c[nH]nc4-c4c(F)cccc4F)cc23)cn1` [Example 914, 6-[3-(2,6-Difluorophenyl)-1H-pyrazol-4-yl]-4-(4-methylimidazol-1-yl) quinazoline]: the IC50 was below 10 nM.
For `CN(C)S(=O)(=O)c1ccc(N2CCN(c3ncnc4ccc(-c5cn[nH]c5)cc34)CC2)cc1` [Example 921, N,N-Dimethyl-4-{4-[6-(1H-pyrazol-4-yl)quinazolin-4-yl]piperazin-1-yl} benzene sulfonamide], the IC50 is below 10 nM.
Next, `CS(=O)(=O)c1ccc(N2CCN(c3ncnc4ccc(-c5cn[nH]c5)cc34)CC2)s1` [Example 923, 4-[4-(5-Methylsulfonylthiophen-2-yl)piperazin-1-yl]-6-(1H-pyrazol-4-yl)quinazoline trihydrochloride]: below 10 nM; `Cc1cccc(N2CCN(c3ncnc4ccc(-c5cn[nH]c5)cc34)CC2)c1` [Example 934, 6-(1H-Pyrazol-4-yl)-4-(4-m-tolylpiperazin-1-yl)-quinazoline tri-trifluoroacetate]: below 10 nM; `c1ccc(N2CCN(c3ncnc4ccc(-c5cn[nH]c5)cc34)CC2)nc1` [Example 936, 6-(1H-Pyrazol-4-yl)-4-(4-pyridin-2-yl-piperazin-1-yl)quinazoline tri-trifluoroacetate]: below 10 nM.
For `CS(=O)(=O)c1cccc(N2CCN(c3ncnc4ccc(-c5cn[nH]c5)cc34)CC2)c1` [Example 946, 4-[4-(3-Methylsulfonylphenyl)piperazin-1-yl]-6-(1H-pyrazol-4-yl)quinazoline tri-trifluoroacetate], the IC50 is below 10 nM.
In the case of `O=S(=O)(CCO)c1cccc(N2CCN(c3ncnc4ccc(-c5cn[nH]c5)cc34)CC2)c1` [Example 951, 2-(3-{4-[6-(1H-Pyrazol-4-yl)quinazolin-4-yl]piperazin-1-yl}benzenesulfonyl)ethanol tri-trifluoroacetate], the IC50 is 10 to 100 nM.
Take `CNS(=O)(=O)c1cccc(N2CCN(c3ncnc4ccc(-c5cn[nH]c5)cc34)CC2)c1` [Example 952, N-Methyl-3-{4-[6-(1H-pyrazol-4-yl)quinazolin-4-yl]piperazin-1-yl}benzene sulfonamide tri-trifluoroacetate]: the IC50 is below 10 nM.
Consider `O=S(=O)(c1cccc(N2CCN(c3ncnc4ccc(-c5cn[nH]c5)cc34)CC2)c1)N1CCCCC1` [Example 955, 4-{4-[3-(Piperidine-1-sulfonyl)phenyl]piperazin-1-yl}-6-(1H-pyrazol-4-yl)quinazoline tri-trifluoroacetate], for which the IC50 is below 10 nM.
The same measure for `c1nc(N2CCN(C3CCCCC3)CC2)c2cc(-c3cn[nH]c3)ccc2n1` [Example 957, 4-(4-Cyclohexylpiperazin-1-yl)-6-(1H-pyrazol-4-yl)quinazoline tri-trifluoroacetate]: 10 to 100 nM; for `COc1ccc(-c2n[nH]cc2-c2ccc3ncnc(N4CCN(c5cccc(S(C)(=O)=O)c5)CC4)c3c2)cc1OC` [Example 963, 6-[3-(3,4-Dimethoxyphenyl)-1H-pyrazol-4-yl]-4-[4-(3-methylsulfonylphenyl)piperazin-1-yl]-quinazoline tri-trifluoroacetate]: below 10 nM; for `CS(=O)(=O)c1cccc(N2CCN(c3ncnc4ccc(-c5c[nH]nc5-c5ccc6c(c5)OCO6)cc34)CC2)c1` [Example 964, 6-(3-Benzo[1,3]dioxol-5-yl-1H-pyrazol-4-yl)-4-[4-(3-methylsulfonylphenyl)piperazin-1-yl]quinazoline tri-trifluoroacetate]: below 10 nM.
Consider `CS(=O)(=O)c1cccc(N2CCN(c3ncnc4ccc(-c5c[nH]nc5-c5ccc(C#N)s5)cc34)CC2)c1` [Example 967, 5-(4-{4-[4-(3-Methylsulfonylphenyl)piperazin-1-yl]quinazolin-6-yl}-1H-pyrazol-3-yl)thiophen-2-carbonitrile tri-trifluoroacetate], for which the IC50 was below 10 nM.
Regarding `Cc1ccc(S(=O)(=O)N2CCN(c3ncnc4ccc(-c5cn[nH]c5)cc34)CC2)cc1` [Example 971, 4-[4-(Toluene-4-sulfonyl)piperazin-1-yl]-6-(1H-pyrazol-4-yl)quinazoline di-trifluoroacetate], the IC50 lay in the range of 100 to 1000 nM.
`O=C(Nc1cccc(N2CCN(c3ncnc4ccc(-c5cn[nH]c5)cc34)CC2)c1)C1CC1` [Example 976, Cyclopropanecarboxylic acid (3-{4-[6-(1H-pyrazol-4-yl)quinazolin-4-yl]piperazin-1-yl}phenyl)amide tri-trifluoroacetate]: the IC50 is below 10 nM.
Next, `O=C(Nc1cccc(N2CCN(c3ncnc4ccc(-c5cn[nH]c5)cc34)CC2)c1)C1(c2ccccc2)CC1` [Example 978, 1-Phenylcyclopropanecarboxylic acid (3-{4-[6-(1H-pyrazol-4-yl)quinazolin-4-yl]piperazin-1-yl}phenyl)amide tri-trifluoroacetate]: below 10 nM; `O=S(=O)(Nc1cccc(N2CCN(c3ncnc4ccc(-c5cn[nH]c5)cc34)CC2)c1)c1cccs1` [Example 993, Thiophene-2-sulfonic acid (3-{4-[6-(1H-pyrazol-4-yl)quinazolin-4-yl]piperazin-1-yl)phenyl)amide tri-trifluoroacetate]: 10 to 100 nM; `O=S1(=O)CCCN1c1cccc(N2CCN(c3ncnc4ccc(-c5cn[nH]c5)cc34)CC2)c1` [Example 1000, 4-{4-[3-(1,1-Dioxo-isothiazolidin-2-yl)phenyl]piperazin-1-yl}-6-(1H-pyrazol-4-yl)quinazoline tri-trifluoroacetate]: below 10 nM.
For the molecule `CS(=O)(=O)c1cccc(N2CCCN(c3ncnc4ccc(-c5cn[nH]c5)cc34)CC2)c1` [Example 1002, 4-{4-(3-Methylsulfonyl)phenyl}-1,4-diazepan-1-yl}-6-(1H-4-pyrazolyl)quinazoline hydrochloride], the IC50 was 10 to 100 nM.
As for `N#Cc1cc(N2CCN(c3ncnc4ccc(-c5cn[nH]c5)cc34)CC2)ccc1F` [Example 1007, 2-Fluoro-5-{4-[6-(1H-4-pyrazolyl)-4-quinazolinyl]piperazin-1-yl}benzonitrile hydrochloride], the IC50 lay within 10 to 100 nM.
For the molecule `CS(=O)(=O)c1ccc(OC2CCN(c3ccnc4ccc(-c5cn[nH]c5)cc34)CC2)c(F)c1` [Example 1032, 4-[4-(2-Fluoro-4-methylsulfonylphenoxy)-piperidin-1-yl]-6-(1H-pyrazol-4-yl)quinoline trihydrochloride], the IC50 lay within 10 to 100 nM.
With `O=S(=O)(c1ccc(OC2CCN(c3ccnc4ccc(-c5c[nH]nc5C(F)(F)F)cc34)CC2)cc1)C(F)(F)F` [Example 1034, 4-[4-(4-Trifluoromethylsulfonylphenoxy)piperidin-1-yl]-6-(3-trifluoromethyl-1H-pyrazol-4-yl)quinoline trihydrochloride], the IC50 was in the range of 10 to 100 nM.
Next, `Cc1cc(-c2ccnc3ccc(-c4c[nH]nc4C(F)(F)F)cc23)on1` [Example 1070, 4-(3-Methylisoxazol-5-yl)-6-(3-trifluoromethyl-1H-pyrazol-4-yl) quinoline]: 10 to 100 nM.
